The experiment has as its system GluA1 mRNA. Kind of experiment: GluA1 mRNA by RT-qPCR in cortical neurons. It is filed as cell-based, mouse. The following applies: BDNF plus AK-7 16.7 µM vs BDNF plus vehicle, 6 h. The protocol: After experimental treatment, total RNA was isolated from primary cortical neuron cultures using the TRIzol method (Invitrogen). The concentration of total RNA was measured using a NanoDrop 1000 spectrophotometer (Thermo Fisher Scientific, Rockford, IL) and first-strand complementary DNA (cDNA) was synthesized using the iScript cDNA Synthesis Kit (Bio-Rad, Hercules, CA). Real-time PCRs were performed using gene-specific primers and monitored by quantification of SYBR Green I fluorescence using a Bio-Rad CFX96 Real-Time Detection System. Expression was normalized against Gapdh expression. The relative quantification from at least three biological replicates was performed using the comparative cycle threshold (∆∆CT) method.
Primers for real-time reverse transcription PCR experiments were: Arc, 5′-[…]-3′ (forward) and 5′-[…]-3′ (reverse); Map2, 5′-[…]-3′ (forward) and 5′-[…]-3′ (reverse); GluA1, 5′-[…]-3′ (forward) and 5′-[…]-3′ (reverse); GluA2, 5′-[…]-3′ (forward) and 5′-[…]-3′ (reverse); Gapdh, 5′-[…]-3′ (forward) and 5′-[…]-3′ (reverse).
Supplementary Fig. 6. […] Bars represent mean fold-change and error bars indicate range from five biological replicates.
(In general: In qPCR the cycle at which signal appears reflects the starting amount.)

On to `O=C(Nc1cccc(Br)c1)c1cccc(S(=O)(=O)N2CCCCCC2)c1` [AK-7], for which the “GluA1 mRNA expression” value is given as “does not affect”.

Values taken from paper PMC5698418 (Nature Communications, 2017).
